The values that follow are results of earlier work, collected in patent publication US8247571B2, “Pyridinium and thiazolium conjugates including polyethylene glycols and methods of using the same” (Mycosol, Inc., priority 2005, dated 2012).

The test system of the series is roundworms, threadworms, and whipworms. Conditions: reported; U.S. Pat. Nos. 3,075,975 and 3,085,935.

Regarding `CC[n+]1c(/C=C/c2ccc(N3CCCC3)cc2)cccc1/C=C/c1ccc(N2CCCC2)cc1.[I-]` [Stilbazium iodide], the anthelmintic effectiveness result is given as “effective”.
